Test results reported in patent US8192962B2, “Processes for detecting toxic substances” (Daikin Industries, Ltd., priority 2001, dated 2012).

Test system: Transport facilitation protein genes
Experiment: DNA chip mRNA expression in yeast, transport facilitation protein genes (Table 5)
Format: cell-based, Saccharomyces cerevisiae S288C
Summary of the method: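 Value is the scanned fluorescence intensity ratio of exposed versus chemical-free cells. Log-phase S288C yeast in YPD at 25° C. received one toxic substance for two hours, dosed to slow growth without killing; Cy3/Cy5-labeled cDNA from oligo-dT-purified mRNA was hybridized to a whole-genome chip at 65° C.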

How did the “The level of expressed mRNA in the presence of chemical substance/The level of expressed mRNA in the absence of chemical substance” value (yeast gene YBL030C) turn out when `COc1cc(CNC(=O)CCCCC=CC(C)C)ccc1O` [(12), 8-methyl-N-vanillyl-6-nonenamide] was run?
The value was 0.9.

And the “The level of expressed mRNA in the presence of chemical substance/The level of expressed mRNA in the absence of chemical substance” value (yeast gene YBL099W)?
Its value is 1.0.

What about the “The level of expressed mRNA in the presence of chemical substance/The level of expressed mRNA in the absence of chemical substance” value (yeast gene YBR052C) of the same compound?
Its value is 1.3.

And the “The level of expressed mRNA in the presence of chemical substance/The level of expressed mRNA in the absence of chemical substance” value (yeast gene YBR068C)?
The value was 0.8.

And the “The level of expressed mRNA in the presence of chemical substance/The level of expressed mRNA in the absence of chemical substance” value (yeast gene YBR127C)?
Its value is 0.9.

What about the “The level of expressed mRNA in the presence of chemical substance/The level of expressed mRNA in the absence of chemical substance” value (yeast gene YBR132C) of the same compound?
The value was 1.0.

And the “The level of expressed mRNA in the presence of chemical substance/The level of expressed mRNA in the absence of chemical substance” value (yeast gene YBR207W)?
The value was 0.9.

What about the “The level of expressed mRNA in the presence of chemical substance/The level of expressed mRNA in the absence of chemical substance” value (yeast gene YBR293W) of the same compound?
The value was 1.0.

And the “The level of expressed mRNA in the presence of chemical substance/The level of expressed mRNA in the absence of chemical substance” value (yeast gene YBR294W)?
The value was 1.0.

And the “The level of expressed mRNA in the presence of chemical substance/The level of expressed mRNA in the absence of chemical substance” value (yeast gene YBR295W)?
Its value is 0.9.

What about the “The level of expressed mRNA in the presence of chemical substance/The level of expressed mRNA in the absence of chemical substance” value (yeast gene YBR298C) of the same compound?
Its value is 1.1.

And the “The level of expressed mRNA in the presence of chemical substance/The level of expressed mRNA in the absence of chemical substance” value (yeast gene YCL025C)?
The value was 1.1.

And the “The level of expressed mRNA in the presence of chemical substance/The level of expressed mRNA in the absence of chemical substance” value (yeast gene YCL038C)?
The value was 1.3.

What about the “The level of expressed mRNA in the presence of chemical substance/The level of expressed mRNA in the absence of chemical substance” value (yeast gene YCR024C-A) of the same compound?
The value was 1.0.

And the “The level of expressed mRNA in the presence of chemical substance/The level of expressed mRNA in the absence of chemical substance” value (yeast gene YCR037C)?
The value was 0.7.

And the “The level of expressed mRNA in the presence of chemical substance/The level of expressed mRNA in the absence of chemical substance” value (yeast gene YCR098C)?
The value was 1.3.

What about the “The level of expressed mRNA in the presence of chemical substance/The level of expressed mRNA in the absence of chemical substance” value (yeast gene YDL128W) of the same compound?
The value was 0.9.

And the “The level of expressed mRNA in the presence of chemical substance/The level of expressed mRNA in the absence of chemical substance” value (yeast gene YDL198C)?
The value was 1.2.

And the “The level of expressed mRNA in the presence of chemical substance/The level of expressed mRNA in the absence of chemical substance” value (yeast gene YDL210W)?
The value was 0.8.

What about the “The level of expressed mRNA in the presence of chemical substance/The level of expressed mRNA in the absence of chemical substance” value (yeast gene YDL245C) of the same compound?
The value was 1.0.

And the “The level of expressed mRNA in the presence of chemical substance/The level of expressed mRNA in the absence of chemical substance” value (yeast gene YDR038C)?
Its value is 0.7.

What about the “The level of expressed mRNA in the presence of chemical substance/The level of expressed mRNA in the absence of chemical substance” value (yeast gene YDR039C) of the same compound?
The value was 0.8.

What about the “The level of expressed mRNA in the presence of chemical substance/The level of expressed mRNA in the absence of chemical substance” value (yeast gene YDR086C) of the same compound?
Its value is 0.7.

What about the “The level of expressed mRNA in the presence of chemical substance/The level of expressed mRNA in the absence of chemical substance” value (yeast gene YDR270W) of the same compound?
Its value is 1.0.

What about the “The level of expressed mRNA in the presence of chemical substance/The level of expressed mRNA in the absence of chemical substance” value (yeast gene YDR298C) of the same compound?
The value was 1.1.

What about the “The level of expressed mRNA in the presence of chemical substance/The level of expressed mRNA in the absence of chemical substance” value (yeast gene YDR342C) of the same compound?
Its value is 1.0.

What about the “The level of expressed mRNA in the presence of chemical substance/The level of expressed mRNA in the absence of chemical substance” value (yeast gene YDR343C) of the same compound?
Its value is 1.0.

And the “The level of expressed mRNA in the presence of chemical substance/The level of expressed mRNA in the absence of chemical substance” value (yeast gene YDR345C)?
Its value is 1.4.

What about the “The level of expressed mRNA in the presence of chemical substance/The level of expressed mRNA in the absence of chemical substance” value (yeast gene YDR387C) of the same compound?
The value was 0.9.

What about the “The level of expressed mRNA in the presence of chemical substance/The level of expressed mRNA in the absence of chemical substance” value (yeast gene YDR497C) of the same compound?
The value was 0.9.

And the “The level of expressed mRNA in the presence of chemical substance/The level of expressed mRNA in the absence of chemical substance” value (yeast gene YEL027W)?
The value was 0.9.

And the “The level of expressed mRNA in the presence of chemical substance/The level of expressed mRNA in the absence of chemical substance” value (yeast gene YEL063C)?
Its value is 1.1.

And the “The level of expressed mRNA in the presence of chemical substance/The level of expressed mRNA in the absence of chemical substance” value (yeast gene YEL065W)?
The value was 1.7.

What about the “The level of expressed mRNA in the presence of chemical substance/The level of expressed mRNA in the absence of chemical substance” value (yeast gene YER053C) of the same compound?
The value was 1.7.

What about the “The level of expressed mRNA in the presence of chemical substance/The level of expressed mRNA in the absence of chemical substance” value (yeast gene YER119C) of the same compound?
Its value is 0.7.

And the “The level of expressed mRNA in the presence of chemical substance/The level of expressed mRNA in the absence of chemical substance” value (yeast gene YFL011W)?
Its value is 0.9.

And the “The level of expressed mRNA in the presence of chemical substance/The level of expressed mRNA in the absence of chemical substance” value (yeast gene YFL041W)?
Its value is 1.1.

What about the “The level of expressed mRNA in the presence of chemical substance/The level of expressed mRNA in the absence of chemical substance” value (yeast gene YFL050C) of the same compound?
Its value is 0.9.

What about the “The level of expressed mRNA in the presence of chemical substance/The level of expressed mRNA in the absence of chemical substance” value (yeast gene YFL054C) of the same compound?
Its value is 1.2.

And the “The level of expressed mRNA in the presence of chemical substance/The level of expressed mRNA in the absence of chemical substance” value (yeast gene YFL055W)?
The value was 0.9.

What about the “The level of expressed mRNA in the presence of chemical substance/The level of expressed mRNA in the absence of chemical substance” value (yeast gene YGL006W) of the same compound?
The value was 0.9.

What about the “The level of expressed mRNA in the presence of chemical substance/The level of expressed mRNA in the absence of chemical substance” value (yeast gene YGL008C) of the same compound?
Its value is 2.4.

And the “The level of expressed mRNA in the presence of chemical substance/The level of expressed mRNA in the absence of chemical substance” value (yeast gene YGL104C)?
The value was 1.1.

And the “The level of expressed mRNA in the presence of chemical substance/The level of expressed mRNA in the absence of chemical substance” value (yeast gene YGL167C)?
Its value is 1.1.

And the “The level of expressed mRNA in the presence of chemical substance/The level of expressed mRNA in the absence of chemical substance” value (yeast gene YGL255W)?
Its value is 0.7.

What about the “The level of expressed mRNA in the presence of chemical substance/The level of expressed mRNA in the absence of chemical substance” value (yeast gene YGR055W) of the same compound?
The value was 0.9.

What about the “The level of expressed mRNA in the presence of chemical substance/The level of expressed mRNA in the absence of chemical substance” value (yeast gene YGR065C) of the same compound?
The value was 0.5.

What about the “The level of expressed mRNA in the presence of chemical substance/The level of expressed mRNA in the absence of chemical substance” value (yeast gene YGR082W) of the same compound?
Its value is 0.8.

And the “The level of expressed mRNA in the presence of chemical substance/The level of expressed mRNA in the absence of chemical substance” value (yeast gene YGR096W)?
Its value is 0.8.

What about the “The level of expressed mRNA in the presence of chemical substance/The level of expressed mRNA in the absence of chemical substance” value (yeast gene YGR138C) of the same compound?
Its value is 0.6.

And the “The level of expressed mRNA in the presence of chemical substance/The level of expressed mRNA in the absence of chemical substance” value (yeast gene YGR191W)?
Its value is 0.7.

What about the “The level of expressed mRNA in the presence of chemical substance/The level of expressed mRNA in the absence of chemical substance” value (yeast gene YGR197C) of the same compound?
The value was 1.2.

What about the “The level of expressed mRNA in the presence of chemical substance/The level of expressed mRNA in the absence of chemical substance” value (yeast gene YGR224W) of the same compound?
Its value is 0.6.

What about the “The level of expressed mRNA in the presence of chemical substance/The level of expressed mRNA in the absence of chemical substance” value (yeast gene YGR260W) of the same compound?
The value was 0.6.
